Measured values published in patent US11026991B2, “Compositions and methods of use thereof to promote muscle growth and function” (Worlds Greatest Ingredients, LP, priority 2018, dated 2021).

Assays:
[1] = parameters: species or system human; conditions: in vivo
Method: Another exemplary study was done on a subject. The subject reported to the laboratory after an eight hour fast. Following and eight hour fast, the subject was given a standardized meal plan for two days prior to testing. The subject had their resting heart rate, blood pressure, body mass, height, and body measured using DEXA. Additionally, a urine sample was taken for baseline assessment of clinical safety, amino acid retention, and hydration status. A venous blood sample (10 mL) was be collected from a forearm vein prior to the subject being administrated, in a double-blind fashion a single dose of either leucine (2-gram dose), dileucine (2-gram dose) or leucine (1 grams)+dileucine (1 grams). Subsequent venous blood samples were to be collected 30, 60, 90, 120 and 240 minutes after ingestion of their assigned composition. After blood samples were taken the subject was given 250 mL of cold water to ingest. A second urine sample was taken at 240 minutes after ingestion of the composition. The methodology is shown schematically in FIG. 12.
All blood samples were processed to allow for determination of amino acid concentrations. […]
Plasma essential amino acids (threonine, methionine, lysine, histidine, valine, tryptophan, leucine, phenylalanine, isoleucine) were analyzed by LC/MS/MS and plasma dileucine was analyzed by GC/MS.

[2] = Case study: plasma amino acids after ingestion of 2 g di-leucine (Ce) or 2 g leucine (C4); conditions: for increase in plasma lysine, times greater than the other condition: Ce over C4
Method: The subject came into the laboratory fasted prior to the testing days. […] On Day 1, they were randomized to consume 1 of the 2 conditions. Following, consumption of the fluid mixture (8 oz. water), plasma amino acids were measured at 30, 60, 90, and 120 minutes. A 72-hour washout took place followed by the 2nd condition following the same procedures.
The dosage used in this study was either 2 grams of di-leucine (condition Ce) or 2 grams of leucine (condition C4).

muscle protein synthesis = test: Muscle protein synthesis from vastus lateralis biopsies (L-[ring-13C6]-phenylalanine incorporation); assay type: in vivo, human; conditions: 180 minutes post challenge, 2 g, versus subjects receiving leucine
Method: Another exemplary study was done to measure muscle protein synthesis. Two subjects came to the laboratory after a seven hour, overnight fast. A baseline blood sample was taken. Then a primed (2.0 μmol·kg−1), continuous infusion (0.05 μmol·kg−1·min−1) of L-[ring-13C6]-phenylalanine and L-[15N]-phenylalanine was started in one catheter.
Isotopes (from Cambridge Isotopes Inc., Andover, Mass.) were dissolved in 0.9% saline, filtered through a 0.2-μm filter, and infused using a calibrated syringe pump (from Harvard Apparatus, Holliston, Mass.). After obtaining steady-state enrichment, the L-[15N]-phenylalanine tracer infusion was stopped at t=0.
Repeated muscle biopsy sampling was done throughout the infusion trial for the determination of muscle protein synthesis (based on L-[ring-13C6]-phenylalanine incorporation) before and after the ingestion of 2 g leucine or 2 g dileucine. Biopsies (˜100 mg wet weight) were obtained from the middle region of the vastus lateralis under anesthetic (Lidocaine HCl 1%) with a 5 mm Bergstrom needle custom-modified for manual suction. A schematic representation of the experimental protocol can be found in FIG. 15.

plasma dileucine levels [1]: measurable increases
increases in total EAA concentration relative to baseline (range) ([2]; 30 and 60 mPost): 7.2% to 26.9%
increase in total EAA concentration, times greater than Condition C4 ([2]; 30 mPost): 4 ×
increase in total plasma BCAAs, times greater than Condition C4 ([2]; 30 mPost): 2.9 ×
Plasma Isoleucine Delta Change Relative to Baseline Values ([2]; 30 mPost ingestion of 2 g): -11.31 nmol/L
Plasma Isoleucine Percent Change Relative to Baseline Values ([2]; 30 mPost ingestion of 2 g): −16.0%
Plasma Lysine Delta Change Relative to Baseline Values ([2]; 30 mPost ingestion of 2 g): 39.97 nmol/L
Plasma Lysine Percent Change Relative to Baseline Values ([2]; 30 mPost ingestion of 2 g): 29.7%
Plasma Methionine Delta Change Relative to Baseline Values ([2]; 30 mPost ingestion of 2 g): 2.32 µM
Plasma Methionine Percent Change Relative to Baseline Values ([2]; 30 mPost ingestion of 2 g): 10.1%
Plasma Phenylalanine Delta Change Relative to Baseline Values ([2]; 30 mPost ingestion of 2 g): 3.55 nmol/L
Plasma Phenylalanine Percent Change Relative to Baseline Values ([2]; 30 mPost ingestion of 2 g): 6.0%
Plasma Threonine Delta Change Relative to Baseline Values ([2]; 30 mPost ingestion of 2 g): 7.09 µM
Plasma Tryptophan Delta Change Relative to Baseline Values ([2]; 30 mPost ingestion of 2 g): -0.83 nmol/L
Plasma Tryptophan Percent Change Relative to Baseline Values ([2]; 30 mPost ingestion of 2 g): −1.3%
Plasma Valine Delta Change Relative to Baseline Values ([2]; 30 mPost ingestion of 2 g): -13.31 nmol/L
Plasma Valine Percent Change Relative to Baseline Values ([2]; 30 mPost ingestion of 2 g): −3.6%
Total Plasma BCAA Delta Change Relative to Baseline Values ([2]; 30 mPost ingestion of 2 g): 213 µM
Total Plasma BCAA Percent Change Relative to Baseline Values ([2]; 30 mPost ingestion of 2 g): 35.7%
Total Plasma EAA Delta Change Relative to Baseline Values ([2]; 30 mPost ingestion of 2 g): 265.57 nmol/L
Total Plasma EAA Percent Change Relative to Baseline Values ([2]; 30 mPost ingestion of 2 g): 26.9%
increase in plasma lysine, times greater than the other condition ([2]; 30 mPost): 2.8 ×
Plasma Isoleucine Delta Change Relative to Baseline Values ([2]; 60 mPost ingestion of 2 g): -14.21 nmol/L
Plasma Isoleucine Percent Change Relative to Baseline Values ([2]; 60 mPost ingestion of 2 g): −20.1%
Plasma Lysine Delta Change Relative to Baseline Values ([2]; 60 mPost ingestion of 2 g): 41.31 nmol/L
Plasma Lysine Percent Change Relative to Baseline Values ([2]; 60 mPost ingestion of 2 g): 30.7%
Plasma Methionine Delta Change Relative to Baseline Values ([2]; 60 mPost ingestion of 2 g): 1.01 µM
Plasma Methionine Percent Change Relative to Baseline Values ([2]; 60 mPost ingestion of 2 g): 4.4%
Plasma Phenylalanine Delta Change Relative to Baseline Values ([2]; 60 mPost ingestion of 2 g): 2.02 nmol/L
Plasma Phenylalanine Percent Change Relative to Baseline Values ([2]; 60 mPost ingestion of 2 g): 3.4%
Plasma Threonine Delta Change Relative to Baseline Values ([2]; 60 mPost ingestion of 2 g): 6.11 µM
Plasma Tryptophan Delta Change Relative to Baseline Values ([2]; 60 mPost ingestion of 2 g): -5.10 nmol/L
Plasma Tryptophan Percent Change Relative to Baseline Values ([2]; 60 mPost ingestion of 2 g): −7.9%
Plasma Valine Delta Change Relative to Baseline Values ([2]; 60 mPost ingestion of 2 g): -52.63 nmol/L
Plasma Valine Percent Change Relative to Baseline Values ([2]; 60 mPost ingestion of 2 g): −14.1%
Total Plasma BCAA Delta Change Relative to Baseline Values ([2]; 60 mPost ingestion of 2 g): 26 µM
Total Plasma BCAA Percent Change Relative to Baseline Values ([2]; 60 mPost ingestion of 2 g): 4.3%
Total Plasma EAA Delta Change Relative to Baseline Values ([2]; 60 mPost ingestion of 2 g): 71.33 nmol/L
Total Plasma EAA Percent Change Relative to Baseline Values ([2]; 60 mPost ingestion of 2 g): 7.2%
increase in plasma lysine, times greater than the other condition ([2]; 60 mPost): 5.7 ×
Plasma Isoleucine Delta Change Relative to Baseline Values ([2]; 90 mPost ingestion of 2 g): -26.67 nmol/L
Plasma Isoleucine Percent Change Relative to Baseline Values ([2]; 90 mPost ingestion of 2 g): −37.7%
Plasma Lysine Delta Change Relative to Baseline Values ([2]; 90 mPost ingestion of 2 g): -25.31 nmol/L
Plasma Lysine Percent Change Relative to Baseline Values ([2]; 90 mPost ingestion of 2 g): −18.8%
Plasma Methionine Delta Change Relative to Baseline Values ([2]; 90 mPost ingestion of 2 g): -0.00173 µM
Plasma Methionine Percent Change Relative to Baseline Values ([2]; 90 mPost ingestion of 2 g): −7.5%
Plasma Phenylalanine Delta Change Relative to Baseline Values ([2]; 90 mPost ingestion of 2 g): -5.98 nmol/L
Plasma Phenylalanine Percent Change Relative to Baseline Values ([2]; 90 mPost ingestion of 2 g): −10.1%
Plasma Threonine Delta Change Relative to Baseline Values ([2]; 90 mPost ingestion of 2 g): -0.0034 µM
Plasma Threonine Percent Change Relative to Baseline Values ([2]; 90 mPost ingestion of 2 g): −3.2%
Plasma Tryptophan Delta Change Relative to Baseline Values ([2]; 90 mPost ingestion of 2 g): -6.60 nmol/L
Plasma Tryptophan Percent Change Relative to Baseline Values ([2]; 90 mPost ingestion of 2 g): −10.2%
Plasma Valine Delta Change Relative to Baseline Values ([2]; 90 mPost ingestion of 2 g): -79.42 nmol/L
Plasma Valine Percent Change Relative to Baseline Values ([2]; 90 mPost ingestion of 2 g): −21.3%
Total Plasma BCAA Delta Change Relative to Baseline Values ([2]; 90 mPost ingestion of 2 g): -0.07162 µM
Total Plasma BCAA Percent Change Relative to Baseline Values ([2]; 90 mPost ingestion of 2 g): −12.0%
Total Plasma EAA Delta Change Relative to Baseline Values ([2]; 90 mPost ingestion of 2 g): -114.65 nmol/L
Total Plasma EAA Percent Change Relative to Baseline Values ([2]; 90 mPost ingestion of 2 g): −11.6%
Plasma Isoleucine Delta Change Relative to Baseline Values ([2]; 120 mPost ingestion of 2 g): -24.37 nmol/L
Plasma Isoleucine Percent Change Relative to Baseline Values ([2]; 120 mPost ingestion of 2 g): −34.4%
Plasma Lysine Delta Change Relative to Baseline Values ([2]; 120 mPost ingestion of 2 g): 25.68 nmol/L
Plasma Lysine Percent Change Relative to Baseline Values ([2]; 120 mPost ingestion of 2 g): 19.1%
Plasma Methionine Delta Change Relative to Baseline Values ([2]; 120 mPost ingestion of 2 g): -0.00168 µM
Plasma Methionine Percent Change Relative to Baseline Values ([2]; 120 mPost ingestion of 2 g): −7.3%
Plasma Phenylalanine Delta Change Relative to Baseline Values ([2]; 120 mPost ingestion of 2 g): -1.89 nmol/L
Plasma Phenylalanine Percent Change Relative to Baseline Values ([2]; 120 mPost ingestion of 2 g): −3.2%
Plasma Threonine Delta Change Relative to Baseline Values ([2]; 120 mPost ingestion of 2 g): -0.00207 µM
Plasma Threonine Percent Change Relative to Baseline Values ([2]; 120 mPost ingestion of 2 g): −1.9%
Plasma Tryptophan Delta Change Relative to Baseline Values ([2]; 120 mPost ingestion of 2 g): -13.23 nmol/L
Plasma Tryptophan Percent Change Relative to Baseline Values ([2]; 120 mPost ingestion of 2 g): −20.5%
Plasma Valine Delta Change Relative to Baseline Values ([2]; 120 mPost ingestion of 2 g): -85.53 nmol/L
Plasma Valine Percent Change Relative to Baseline Values ([2]; 120 mPost ingestion of 2 g): −22.9%
Total Plasma BCAA Delta Change Relative to Baseline Values ([2]; 120 mPost ingestion of 2 g): -0.06614 µM
Total Plasma BCAA Percent Change Relative to Baseline Values ([2]; 120 mPost ingestion of 2 g): −11.1%
Total Plasma EAA Delta Change Relative to Baseline Values ([2]; 120 mPost ingestion of 2 g): -59.34 nmol/L
Total Plasma EAA Percent Change Relative to Baseline Values ([2]; 120 mPost ingestion of 2 g): −6.0%
SMILES: CC(C)C[C@H](NC(=O)[C@@H](N)CC(C)C)C(=O)O [Ce, L-Leucyl-L-leucine]
myofibrillar FSR (muscle protein synthesis) (muscle protein synthesis): significantly increased
